This is an account of results in patent US8580965B2, “Substituted sulfonamide compounds” (Gruenenthal GmbH, priority 2006, dated 2013).

In assay [1] the target is T1, human B1R receptor (bradykinin 1 receptor) (Homo sapiens, UniProt P46663).
T1 construct: host or cells: CHO K1 cells (hB1R cells)
T1 sequence (P46663 1-353): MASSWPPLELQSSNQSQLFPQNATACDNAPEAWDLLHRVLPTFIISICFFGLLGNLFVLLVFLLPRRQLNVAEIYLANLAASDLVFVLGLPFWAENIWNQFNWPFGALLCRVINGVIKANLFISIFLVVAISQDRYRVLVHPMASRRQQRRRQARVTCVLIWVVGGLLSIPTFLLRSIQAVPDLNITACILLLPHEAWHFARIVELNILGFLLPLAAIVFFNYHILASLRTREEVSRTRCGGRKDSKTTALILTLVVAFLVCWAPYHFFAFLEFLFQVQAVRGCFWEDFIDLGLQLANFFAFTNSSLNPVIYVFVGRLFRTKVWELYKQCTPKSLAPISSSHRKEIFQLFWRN
In words: FLIPR Ca2+ assay (Fluo-4) on CHO K1 cells stably transfected with the human B1R gene; % activation and % inhibition at 10 μM. The class given is cell-based. To be noted: CHO-K1, test substance 10 μM; CHO K1 hB1R cells; Ca2+ inflow after 0.5 nM Lys-Des-Arg9-bradykinin; read-out: B1R antagonism, human [10 μM] % inhibition. In a few lines:
(§1)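 Fluo-4 Ca2+ flux on FLIPR in stable hB1R or rB1R CHO K1 lines, two additions. Agonism: 10 µM compound versus 0.5 nM Lys-Des-Arg9-BK (human) or 100 nM Des-Arg9-BK (rat); antagonism: same agonists applied 10 min later, suppression expressed against maximum achievable inhibition.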

Assay [2] addresses T2, B1R receptor of the rat (bradykinin 1 receptor) (Rattus norvegicus, UniProt P97583).
T2 construct: host or cells: CHO K1 cells (rB1R cells)
T2 sequence (P97583 1-337): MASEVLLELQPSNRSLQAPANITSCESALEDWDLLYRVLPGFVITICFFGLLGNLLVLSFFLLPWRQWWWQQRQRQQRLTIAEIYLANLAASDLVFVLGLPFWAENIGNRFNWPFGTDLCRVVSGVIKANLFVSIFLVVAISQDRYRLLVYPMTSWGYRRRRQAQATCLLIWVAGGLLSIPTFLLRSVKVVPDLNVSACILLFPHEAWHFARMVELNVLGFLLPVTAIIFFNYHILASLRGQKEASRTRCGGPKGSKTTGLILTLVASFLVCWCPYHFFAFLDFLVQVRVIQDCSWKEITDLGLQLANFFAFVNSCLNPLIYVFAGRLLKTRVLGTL
As to the kind of experiment: FLIPR Ca2+ assay (Fluo-4) on CHO K1 cells stably transfected with the B1R gene of the rat; % activation and % inhibition at 10 μM. Particulars: CHO-K1, test substance 10 μM; CHO K1 rB1R cells; Ca2+ inflow after 100 nM Des-Arg9-bradykinin; read-out: B1R antagonism, rat [10 μM] % inhibition. The class given is cell-based. In a few lines:
as §1

Turning to `O=C(COCC1CCCCN1S(=O)(=O)c1c(Cl)cc(C(F)(F)F)cc1Cl)N1CCC(O)(c2cccc(C(F)(F)F)c2)CC1` (stereo not drawn) [Example 164, 2-((1-(2,6-dichloro-4-(trifluoromethyl)phenylsulfonyl)piperidin-2-yl)methoxy)-1-(4-hydroxy-4-(3-(trifluoromethyl)phenyl)piperidin-1-yl)ethanone], the inhibition at 10 µM in assay [1] is 36.4%; in assay [2], 103%.
Take `O=C(COCC1CCCCN1S(=O)(=O)c1c(Cl)cc(C(F)(F)F)cc1Cl)N1CCC(O)(c2ccc(Cl)c(C(F)(F)F)c2)CC1` (stereo not drawn) [Example 165, 1-(4-(4-chloro-3-(trifluoromethyl)phenyl)-4-hydroxypiperidin-1-yl)-2-((1-(2,6-dichloro-4-(trifluoromethyl)phenylsulfonyl)piperidin-2-yl)methoxy)ethanone]: the inhibition at 10 µM is 2.63% in assay [1] and 104% in assay [2].
Take `O=C(COCC1CCCN1S(=O)(=O)c1c(Cl)cc(C(F)(F)F)cc1Cl)N1CCC(O)(c2ccc(Cl)cc2)CC1` (stereo not drawn) [Example 166, 1-(4-(4-chlorophenyl)-4-hydroxypiperidin-1-yl)-2-((1-(2,6-dichloro-4-(trifluoromethyl)phenylsulfonyl)pyrrolidin-2-yl)methoxy)ethanone]: the inhibition at 10 µM was determined as 58.5% in assay [1] and 104% in assay [2].
For `O=C(COCC1CCCN1S(=O)(=O)c1c(Cl)cc(C(F)(F)F)cc1Cl)N1CCC(O)(c2ccc(Br)cc2)CC1` (stereo not drawn) [Example 167, 1-(4-(4-bromophenyl)-4-hydroxypiperidin-1-yl)-2-((1-(2,6-dichloro-4-(trifluoromethyl)phenylsulfonyl)pyrrolidin-2-yl)methoxy)ethanone], in that order: 41.5% and 104%.
For `O=C(COCC1CCCN1S(=O)(=O)c1c(Cl)cc(C(F)(F)F)cc1Cl)N1CCC(O)(c2ccccc2)CC1` (stereo not drawn) [Example 168, 2-((1-(2,6-dichloro-4-(trifluoromethyl)phenylsulfonyl)pyrrolidin-2-yl)methoxy)-1-(4-hydroxy-4-phenylpiperidin-1-yl)ethanone], in that order: 33.1% and 104%.
Take `O=C(COCC1CCCN1S(=O)(=O)c1c(Cl)cc(C(F)(F)F)cc1Cl)N1CCC(O)(Cc2ccccc2)CC1` (stereo not drawn) [Example 169, 1-(4-benzyl-4-hydroxypiperidin-1-yl)-2-((1-(2,6-dichloro-4-(trifluoromethyl)phenylsulfonyl)pyrrolidin-2-yl)methoxy)ethanone]: the inhibition at 10 µM was determined as 14.6% in assay [1] and 79.4% in assay [2].
Turning to `O=C(COCC1CCCN1S(=O)(=O)c1c(Cl)cc(C(F)(F)F)cc1Cl)N1CCC(O)(c2cccc(C(F)(F)F)c2)CC1` (stereo not drawn) [Example 170, 2-((1-(2,6-dichloro-4-(trifluoromethyl)phenylsulfonyl)pyrrolidin-2-yl)methoxy)-1-(4-hydroxy-4-(3-(trifluoromethyl)phenyl)piperidin-1-yl)ethanone], the figures for the inhibition at 10 µM in assay [1] and in assay [2] were 25.7% and 103%, respectively.
For the compound `O=C(COCC1CCCN1S(=O)(=O)c1c(Cl)cc(C(F)(F)F)cc1Cl)N1CCC(O)(c2ccc(Cl)c(C(F)(F)F)c2)CC1` (stereo not drawn) [Example 171, 1-(4-(4-chloro-3-(trifluoromethyl)phenyl)-4-hydroxypiperidin-1-yl)-2-((1-(2,6-dichloro-4-(trifluoromethyl)phenylsulfonyl)pyrrolidin-2-yl)methoxy)ethanone], the inhibition at 10 µM in assay [1] was determined as 0.56%; in assay [2], 104%.
For the compound `O=C(COCC1CCCCN1S(=O)(=O)c1ccccc1C(F)(F)F)N1CCC(O)(c2cccnc2)CC1` (stereo not drawn) [Example 172, 1-(4-hydroxy-4-(pyridin-3-yl)piperidin-1-yl)-2-((1-(2-(trifluoromethyl)phenylsulfonyl)piperidin-2-yl)methoxy)ethanone], the inhibition at 10 µM in assay [1] amounted to 103%; in assay [2], 105%.
For the compound `O=C(COCC1CCCCN1S(=O)(=O)c1ccccc1C(F)(F)F)N1CCC(O)(c2ccc(Cl)cc2)CC1` (stereo not drawn) [Example 173, 1-(4-(4-chlorophenyl)-4-hydroxypiperidin-1-yl)-2-((1-(2-(trifluoromethyl)phenylsulfonyl)piperidin-2-yl)methoxy)ethanone], the inhibition at 10 µM in assay [1] is 103%; in assay [2], 104%.
As to `O=C(COCC1CCCCN1S(=O)(=O)c1ccccc1C(F)(F)F)N1CCC(O)(c2ccc(Br)cc2)CC1` (stereo not drawn) [Example 174, 1-(4-(4-bromophenyl)-4-hydroxypiperidin-1-yl)-2-((1-(2-(trifluoromethyl)phenylsulfonyl)piperidin-2-yl)methoxy)ethanone], the inhibition at 10 µM in assay [1] came out at 102%; in assay [2] it was 105%.
`O=C(COCC1CCCCN1S(=O)(=O)c1ccccc1C(F)(F)F)N1CCC(O)(c2ccccc2)CC1` (stereo not drawn) [Example 175, 1-(4-hydroxy-4-phenylpiperidin-1-yl)-2-((1-(2-(trifluoromethyl)phenylsulfonyl)piperidin-2-yl)methoxy)ethanone]: the inhibition at 10 µM in assay [1] came to 86%; in assay [2], 104%.
For `O=C(COCC1CCCCN1S(=O)(=O)c1ccccc1C(F)(F)F)N1CCC(O)(Cc2ccccc2)CC1` (stereo not drawn) [Example 176, 1-(4-benzyl-4-hydroxypiperidin-1-yl)-2-((1-(2-(trifluoromethyl)phenylsulfonyl)piperidin-2-yl)methoxy)ethanone], the inhibition at 10 µM in assay [1] was 91%; in assay [2], 102%.
For `O=C(COCC1CCCCN1S(=O)(=O)c1ccccc1C(F)(F)F)N1CCC(O)(c2cccc(C(F)(F)F)c2)CC1` (stereo not drawn) [Example 177, 1-(4-hydroxy-4-(3-(trifluoromethyl)phenyl)piperidin-1-yl)-2-((1-(2-(trifluoromethyl)phenylsulfonyl)piperidin-2-yl)methoxy)ethanone], in that order: 101% and 104%.
For the compound `O=C(COCC1CCCCN1S(=O)(=O)c1ccccc1C(F)(F)F)N1CCC(O)(c2ccc(Cl)c(C(F)(F)F)c2)CC1` (stereo not drawn) [Example 178, 1-(4-(4-chloro-3-(trifluoromethyl)phenyl)-4-hydroxypiperidin-1-yl)-2-((1-(2-(trifluoromethyl)phenylsulfonyl)piperidin-2-yl)methoxy)ethanone], the inhibition at 10 µM in assay [1] came to 89.4%; in assay [2], 104%.
`COc1cc(C)c(S(=O)(=O)N2CCCC2COCC(=O)N2CCC(O)(c3cccnc3)CC2)c(C)c1` (stereo not drawn) [Example 193, 1-(4-hydroxy-4-(pyridin-3-yl)piperidin-1-yl)-2-((1-(4-methoxy-2,6-dimethylphenylsulfonyl)pyrrolidin-2-yl)methoxy)ethanone]: the inhibition at 10 µM in assay [1] came to 104%; in assay [2], 96.6%.
`COc1cc(C)c(S(=O)(=O)N2CCC(COCC(=O)N3CCC(O)(c4cccnc4)CC3)C2)c(C)c1` (stereo not drawn) [Example 194, 1-(4-hydroxy-4-(pyridin-3-yl)piperidin-1-yl)-2-((1-(4-methoxy-2,6-dimethylphenylsulfonyl)pyrrolidin-3-yl)methoxy)ethanone]: the figures for the inhibition at 10 µM in assay [1] and in assay [2] were 104% and 82.8%, respectively.
With `COc1cc(C)c(S(=O)(=O)N2Cc3ccccc3CC2COCC(=O)N2CCC(O)(c3cccnc3)CC2)c(C)c1C` (stereo not drawn) [Example 195, 1-(4-hydroxy-4-(pyridin-3-yl)piperidin-1-yl)-2-((2-(4-methoxy-2,3,6-trimethylphenylsulfonyl)-1,2,3,4-tetrahydroisoquinolin-3-yl)methoxy)ethanone], the inhibition at 10 µM came to 97.8% in assay [1] and 93.5% in assay [2].
With `O=C(COCC1CCCCN1S(=O)(=O)c1c(Cl)cccc1Cl)N1CCC(O)(c2cccnc2)CC1` (stereo not drawn) [Example 196, 2-((1-(2,6-dichlorophenylsulfonyl)piperidin-2-yl)methoxy)-1-(4-hydroxy-4-(pyridin-3-yl)piperidin-1-yl)ethanone], the inhibition at 10 µM in assay [1] was 103%; in assay [2] it was 96.5%.
For `O=C(COCC1CCCN1S(=O)(=O)c1c(Cl)cccc1Cl)N1CCC(O)(c2cccnc2)CC1` (stereo not drawn) [Example 197, 2-((1-(2,6-dichlorophenylsulfonyl)pyrrolidin-2-yl)methoxy)-1-(4-hydroxy-4-(pyridin-3-yl)piperidin-1-yl)ethanone], in that order: 103% and 96.4%.
Turning to `Cc1cc(Cl)cc(Cl)c1S(=O)(=O)N(C)CCOCC(=O)N1CCC(O)(c2ccccn2)CC1` [Example 198, 2,4-dichloro-N-(2-(2-(4-hydroxy-4-(pyridin-2-yl)piperidin-1-yl)-2-oxoethoxy)ethyl)-N,6-dimethylphenylsulfonamide], the inhibition at 10 µM in assay [1] turned out to be 106%; in assay [2] it was 99.2%.
